Source: a melting point compilation (Tetko et al.; mined from patent text by program, amines drawn as free bases though some values may be those of a salt)

| SMILES | melting point |
| --- | --- |
| Nc1ncccc1C(=O)NCC1CCN(C[C@H]2COc3cccc(C(F)(F)F)c3O2)CC1 | 101 to 103 °C |
| O=C(Cl)c1cc([N+](=O)[O-])c(Cl)c([N+](=O)[O-])c1 | 55 to 57 °C |
| O=S(=O)(Cl)c1cc2c(Br)cccc2o1 | 87.2 °C |
| NC(=S)NCc1ccccc1Cl | 120 to 122 °C |
| O=C(CCCCCN1CCN(c2ccc3c(c2)CCCC3)CC1)N1Cc2ccccc2C1 | 123 °C |
| Cc1c(C(=O)O)ccc2c1C(O)CCS2(=O)=O (configuration not stated) | 172 to 173 °C |
| Cc1ccc(S(=O)(=O)OCCN(CCOS(=O)(=O)c2ccc(C)cc2)S(=O)(=O)c2ccc(C)cc2)cc1 | 85 to 87 °C |
| CCOC(=O)C(C(=O)C(C)C)C(c1ccc(F)cc1)c1ccccn1 (configuration not stated) | 106 to 108 °C |
| COc1ccc(CC(=O)c2c(O)c3cccnc3n(-c3ccccc3)c2=O)cc1 | 190 to 192 °C |
| CCOC(=NC(=O)c1cccc(C)c1)N1Cc2ccccc2-c2ccccc2C1 | 102 to 105 °C |
| O=c1[nH]c(=O)n(C2OC(CO)C(O)C2F)cc1Br (configuration not stated) | 214 to 216 °C |
| CC(C)c1cccc(C(C)C)c1NC(=O)NCC1(c2c(Cl)cccc2Cl)CCC1 | 174 to 177 °C |
| Cc1cc(Oc2ccccc2)c(S(C)(=O)=O)cc1C(=O)N=C(N)N | 248 to 250 °C |
| Cc1cc(C)nc(-n2nc(S(=O)(=O)Nc3c(Cl)cccc3Cl)nc2N)n1 | 306 to 312 °C |
| CNC1=NN(C(=O)c2ccccc2F)C(C)(C)S1 | 136 to 140 °C |
| CCOC(=O)c1cn(C2CC2)c2c(F)c(F)c(F)c(F)c2c1=O | 170 to 171 °C |
| O=C1CC(NC(=O)C2CCCN3C(=O)CCC(NC(=O)c4ccccc4)C(=O)N23)C(OCCc2ccccc2)O1 (configuration not stated) | 101 °C |
| Cc1ccnc(Nc2nc(-c3c[nH]nc3C(=O)c3ccccc3)cs2)n1 | 254 to 255 °C |
| Clc1ccc2c(c1)C(c1ccsc1)=NCC1COCCN21 (configuration not stated) | 207 to 212 °C |
| COc1ccc(Cn2c(=O)c3c(Cl)cc(Cl)cc3n(Cc3ccccc3)c2=O)cc1 | 138 to 143 °C |
| C=CC(O)c1ccccc1C#CC1C(O)C2CCN1CC2 (configuration not stated) | 148 to 150 °C |
| O=C1Cc2cc(F)ccc2Sc2ccccc21 | 98 to 100 °C |
| O=C(c1ccccc1)c1cccc(Cl)c1[N+](=O)[O-] | 126 °C |
| Nc1cccnc1Nc1ccccc1C(=O)c1ccc(Cl)cc1 | 145 to 146 °C |
| CSc1c(S(=O)(=O)NC(C)(C)C)ccn1C | 116 to 119 °C |

| SMILES | melting point |
| --- | --- |
| CC(C)CCOc1cc(C(=O)O)cc([N+](=O)[O-])c1 | 142 °C |
| COc1ccc2c(-c3ccccc3)c(C(=O)c3ccc(Cl)cc3)sc2c1 | 115 °C |
| COc1ccc(C(=O)Nc2ccccc2)cc1NS(=O)(=O)c1ccc(C)cc1 | 200 to 202 °C |
| Cc1c(C(=O)O)cnn1-c1nc(-c2ccc(Cl)c(Cl)c2)cs1 | 278 to 279 °C |
| CCc1ccc2c(c1)C(=O)c1ccc(C(=O)O)cc1S2(=O)=O | 300 to 303 °C |
| O=C(CN1c2nc(-c3ccncc3)cc(=O)n2CCC1c1ccccc1)c1ccc2ccccc2c1 (configuration not stated) | 226 to 228 °C |
| C[C@@H](NC(=O)c1c[nH]c2ncc(-c3nn(C)c4c(F)c(F)ccc34)nc12)C(=O)N1CC(C#N)C1 | 240 to 250 °C |
| COc1c(C(O)c2ncc([N+](=O)[O-])n2C)cc(O)cc1C(C)(C)C (configuration not stated) | 125 to 128 °C |
| C=CCSc1ccc(OCCO)nn1 | 38 to 40 °C |
| CC(=O)SCC(C)C(=O)N(CC(=O)O)Cc1ccco1 (configuration not stated) | 140 to 141 °C |
| CCOC(=O)CNC(=O)[C@H](CC(C)C)NC(=O)[C@@H]1CCCN1C(=O)OCc1ccccc1 | 149 to 150 °C |
| COc1ccc2c(c1)c(S(=O)(=O)c1ccccc1)cn2CCNCc1ccccc1 | 98 to 99 °C |
| CC1CC(=O)NN=C1c1ccc(-n2cnc3c2CCCC3)cc1 (configuration not stated) | 199 to 200 °C |
| COc1ccc(N(C)C(=O)CN(C(=O)CNC(=O)Nc2cccc(C)c2)c2ccccc2)cc1 | 202 °C |
| NC(CC1CCCCC1)C(O)C(O)C1CC1 (configuration not stated) | 141 to 142 °C |
| O=C(CBr)OCC1OC(Sc2ccccc2)C(OCc2ccccc2)C(OCc2ccccc2)C1OCc1ccccc1 (configuration not stated) | 85 to 87 °C |
| Cc1cc2occc2cn1 | 55 to 56 °C |
| Cc1c(CC(=O)OC(OC(=O)Cc2cc(C(C)(C)C)c(O)c(C)c2C)(OC(=O)Cc2cc(C(C)(C)C)c(O)c(C)c2C)C(C)(C)C)cc(C(C)(C)C)c(O)c1C | 159 °C |
| CCOC(=O)C1=C(C)NC(C)=C(C(=O)OCCN2CCN(C(c3ccc(C)cc3)c3ccc(C)cc3)CC2)C1c1ccc(C#N)cc1 (configuration not stated) | 93 to 96 °C |
| COc1c(C=Cc2ccccc2)cc(C(C)(C)C)cc1C=Cc1ccccc1 | 129 to 130 °C |
| COC(=O)c1ccc(S(=O)(=O)C2CCN(CCc3ccc(F)cc3F)CC2)cc1 | 123 to 124 °C |
| NS(=O)(=O)c1cc(S(=O)(=O)N(N2CCCCC2)N2CCCCC2)c(Cl)cc1Cl | 170 °C |
| Cc1noc(CCNC(c2ccccc2)(c2ccccc2)c2ccccc2)n1 | 100 to 101 °C |
| CCC(=O)C(Cc1ccc(O)cc1)C(=O)CC | 44 to 54 °C |
| CC12CCC3c4ccc(O)cc4C(O)C(Sc4ccc(Br)cc4)C3C1CCC2O (configuration not stated) | 140 to 145 °C |

| SMILES | melting point |
| --- | --- |
| NCCNCCNc1ccc2c3c(nn2CCO)-c2c(O)ccc(O)c2C(=O)c13 | 185 to 190 °C |
| CC(=O)N1CC(=O)NC(Cc2cccc(NC(=O)OC(C)(C)C)c2)C1=O (configuration not stated) | 189 to 190 °C |
| COc1ccc(F)cc1C(C)(C)c1cc(F)ccc1O | 90 °C |
| O=C(O)CSc1ccc([N+](=O)[O-])cc1C(=O)O | 216 to 217 °C |
| C/C(=C\c1ccc(C#N)cc1)c1ccc2c(c1)C(C)(C)C=CC2(C)C | 140 to 142 °C |
| CSC(C#N)c1cccc(C(=O)c2ccc(Cl)cc2)c1N (configuration not stated) | 122 °C |
| CN(C[C@@H](CCO)c1ccc(Cl)c(Cl)c1)C(=O)c1ccccc1 | 123 to 125 °C |
| CCOc1c(/C=C/c2ccc(NS(C)(=O)=O)cc2)cc(-n2ccc(=O)[nH]c2=O)cc1C(C)(C)C | 265 to 266 °C |
| N#Cc1cnc2cc3ccccc3cc2c1Nc1ccc(F)c(Cl)c1 | 257 to 259 °C |
| N#CC(=NOS(=O)(=O)c1ccc(O)cc1)c1ccccc1 | 148 °C |
| Cc1c(C#N)sc(Br)c1Br | 77 to 80 °C |
| CCOC(=O)[C@@H]1C[C@H](C(=O)O)Nc2cc(Cl)cc(Cl)c21 (relative stereo) | 160 to 162 °C |
| CCCCCN(CCC12CC3CC(CC(C3)C1)C2)C(=O)NCCCc1ccccn1 | 84.4 to 85.7 °C |
| CC(C#N)(c1ccc(Cl)c(C(F)(F)F)c1)c1ccc(N)cc1Cl (configuration not stated) | 180 °C |
| Cc1cc(C#N)cc(Oc2nc(Cl)nc(Cl)c2C(C)C)c1 | 143 to 144 °C |
| NS(=O)(=O)c1ccc(-c2noc(-c3cnc4ccc(-c5ccc(C(F)(F)F)cc5)cn34)n2)s1 | 280 °C |
| C/C=C/CNC(=O)N1CC(Oc2ccc(C(F)(F)F)cc2)C1 | 157 to 158 °C |
| O=Cc1cnc(-c2ccccc2Cl)s1 | 95 to 97 °C |
| CCOC(=O)OC1=C(c2c(C)cc(C)cc2C)C(=O)N(N(C)C)C12CCN(N(C)C)CC2 | 105 °C |
| CCCCc1nc2c(c(C)c(C)n3nnnc23)n1CC(C)(C)NC(=O)OC(C)(C)C | 179 to 181 °C |
| S=c1[nH]c2ccccc2cc1-c1ccccc1 | 242 to 244 °C |
| Cc1ccccc1Nc1nc2ccc(CC(=O)O)cc2o1 | 199 to 200 °C |
| CNC(=O)CN1CCc2cc(Nc3ncc(Cl)c(Nc4c(F)cccc4C(=O)NC)n3)c(OC)cc2CC1 | 119 to 130 °C |
| COc1ccc(C(NCC(=O)Nc2c(C(C)C)cccc2C(C)C)c2ccc(OC)cc2)cc1 | 84 to 85 °C |
| COc1ccc(NC(=O)c2ccc(Br)cc2)cc1N1CCN(C(=O)OC(C)(C)C)CC1 | 156 to 158 °C |

| SMILES | melting point |
| --- | --- |
| COc1ccc(CS[C@@H]2C[C@@H](CSCc3ccccc3)N(S(C)(=O)=O)C2)cc1 | 69 to 71 °C |
| CCCCCC(CC(=O)Nc1cc(CBr)ccc1C(C)(C)C)c1cccc2c1OCO2 (configuration not stated) | 119 to 120 °C |
| OCCNc1nc(NCc2ccccc2)c2ncc(Cl)cc2n1 | 106 to 107 °C |
| COCOc1cc(F)ccc1-c1cc(-c2cccc([N+](=O)[O-])c2)c(C#N)c(NC(=O)c2ccno2)n1 | 161 to 162 °C |
| Clc1csc(-c2nc(COc3ccc(CCCn4ccnc4)cc3)co2)c1 | 69 to 70 °C |
| CCc1ccc(S(=O)(=O)c2ccc(C)nc2Nc2ccc(OC)cc2Cl)cc1 | 110 to 112 °C |
| O=Cc1ccc(-c2cnc3cnc(-c4ccc(O)cc4)nc3c2)cc1 | > 268 °C |
| O=C(O)Cn1c(-c2ccccc2Cl)nc2cccnc21 | 227 to 228 °C |
| Cc1ccc(-c2cc(C=O)nn2-c2ccc(S(N)(=O)=O)cc2)cc1 | 196 to 198 °C |
| CCS(=O)(=O)N(C(C)=O)c1cc(-c2ncnc(C(F)F)c2Cl)c(F)cc1C#N | 123 to 124 °C |
| Clc1ncnc2c1c(I)cn2C1CCOC1 (configuration not stated) | 184 to 186 °C |
| CCOC(=O)c1cccc2nc(OCC)n(Cc3ccc(-c4ccccc4C#N)cc3)c12 | 131 to 132 °C |
| CC(OS(C)(=O)=O)C(C)N1C(=O)c2ccccc2C1=O (configuration not stated) | 67 to 73 °C |
| CC(C)Cc1ccc(C(C)C(=O)Oc2ccc([N+](=O)[O-])cc2)cc1 (configuration not stated) | 156 to 162 °C |
| CS(=O)(=O)OCCCc1ccc(SCc2coc(/C=C/c3ccccc3)n2)cc1 | 97 to 98 °C |
| O=C(CS(=O)(=O)N1CC=C(c2ccc(-c3ccccc3)cc2)CC1)NO | 216 to 218 °C |
| CC(C)n1c(=O)nc(N(C)C)[nH]c1=O | 213 to 214 °C |
| CN(C)c1ccccc1CC(=O)N1C[C@H]2[C@@H](C1)C(c1ccccc1)(c1ccccc1)CC[C@@H]2O | 160 °C |
| O=C1C2=C(NC(=O)C3(N2)SCCS3)c2ccccc21 | > 300 °C |
| C=Cc1cc2cccnc2c(-c2cccc([N+](=O)[O-])c2)n1 | 145 to 151 °C |
| CC1(C)Cc2cccc(CCN3CCN(c4nsc5ccccc45)CC3)c2NC1=O | 95 °C |
| CN1CC(=O)N2[C@H](c3ccc4occc4c3)c3[nH]c4ccccc4c3C[C@@H]2C1=O | 291 to 293 °C |
